Like-named read-outs stand apart in the source and are kept apart here.

Here are results for 27 molecules from patent US7196110B2, “N-substituted tricyclic 3-aminopyrazoles as inhibitors for the treatment of cell proliferative disorders” (Janssen Phamaceutica N.V., priority 2002, dated 2007).

This assay concerns the target T1, PDGF-receptor beta enzyme comprising the tyrosine kinase domain (Homo sapiens, UniProt P09619).
T1 construct: from amino acid 545 to 1106 of GenBank Access NO: AAA36427
Kind of assay: Inhibition of PDGF-receptor kinase activity (cell-free, PLC1 peptide, 33P Flashplate). In kind it is biochemical. The settings on record: for inhibition at 10 µM: compound at 10 uM, read-out: Percent Inhibition @ 10 uM. The method, then: PDGF-R kinase activity was assayed by its ability to phosphorylate one of its target proteins, PLCγ, in a cell-free system, in particular, a PLC1 peptide comprising the tyrosine residue where the phosphorylation occurs was used for the assay.
10× Kinase Buffer (500 mM Tris-HCl pH=8, 100 mM MgCl2, 1 mM Na3VO4); 10 mM DTT (final concentration at 1 mM in assay); 10 mM ATP (final concentration at 5 μM in assay); ^33P-γ-ATP (Cat. No.: NEG/602H. 2000-3000 Ci/mmol) purchased from NEN; Purified, soluble, recombinant PDGF-receptor beta enzyme comprising the tyrosine kinase domain (from amino acid 545 to 1106 of GenBank Access NO: AAA36427 ) at 0.4 mg/mL; Enzyme Dilution Buffer (50 mM Tris-HCl pH=8.0, 0.1% BSA); Wash/Stop Buffer (PBS +100 mM EDTA); NEN Streptavidin Flashplates (Cat. No.: SMP-103) which binds to the biotinylated PLC1 peptide but not the PDGF-R enzyme; PLC1 peptide (Biotin-[…]-Amide) at 1 mM in 50 mM Tris-HCL with pH of 8.0.
Reagents were first mixed according the following regimen:
The above reaction mixture was dispensed into each well of a Flashplate at 70 μl/well. To test the effect of a compound on PDGF-R kinase activity, the test compound either in a fixed concentration or in serially diluted concentrations in 100% DMSO was added to appropriate wells at 1 μl/well.
Enzyme PDGF-R was diluted in Enzyme dilution buffer as following:
The kinase reaction was initiated by adding 30 μl of diluted PDGF-R enzyme solution to each well on the Flashplate containing hot ATP and PLC1, except wells of column 12 rows E through H, which were used to calculate the plate background. The Flashplate was swirled to mix and was incubated at 30° C. for 60 minutes. Then, the reaction mixture was discarded and the Flashplate was washed 3 times each with 200 μl Wash/Stop Buffer. Subsequently, each well on the Flashplate was filled with 200 μl of Wash/Stop buffer. The amount of ^33P retained in each well was measured using a Packard TopCount after the plate was sealed with a transparent plate sealer.
The percentage of inhibition of the test compound on PDGF-R kinase activity is defined as […].
In order to test the potency of inhibition of present compounds, an IC50 for an individual compound was measured using the above procedure. As used herein, the IC50 for PDGF-R kinase activity refers to the concentration of an inhibitor at which the activity of the PDGF-R kinase is reduced by one-half as compared with reactions containing no inhibitor.

[1] abbreviates: PDGF-R kinase activity, read-out: IC50.

T1 sequence (P09619 545-1106): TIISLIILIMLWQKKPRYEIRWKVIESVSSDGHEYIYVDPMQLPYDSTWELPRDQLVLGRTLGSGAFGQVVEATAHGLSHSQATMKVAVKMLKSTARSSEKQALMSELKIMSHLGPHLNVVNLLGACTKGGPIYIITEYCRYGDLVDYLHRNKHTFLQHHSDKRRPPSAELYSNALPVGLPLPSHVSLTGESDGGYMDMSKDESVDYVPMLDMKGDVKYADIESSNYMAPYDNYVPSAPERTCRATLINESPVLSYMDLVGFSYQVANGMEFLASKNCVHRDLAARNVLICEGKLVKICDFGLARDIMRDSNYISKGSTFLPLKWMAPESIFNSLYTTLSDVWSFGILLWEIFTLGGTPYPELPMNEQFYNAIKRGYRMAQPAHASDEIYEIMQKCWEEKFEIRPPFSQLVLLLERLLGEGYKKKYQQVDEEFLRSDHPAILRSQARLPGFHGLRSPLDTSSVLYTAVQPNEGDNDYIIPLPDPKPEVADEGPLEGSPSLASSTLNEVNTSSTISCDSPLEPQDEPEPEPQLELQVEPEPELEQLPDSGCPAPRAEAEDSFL

`COc1cc2c(cc1OC)-c1c(c(Nc3cccc(F)c3)nn1C(=O)Oc1ccccc1Cl)C2` [Compound 513, 3-(3-Fluoro-phenylamino)-6,7-dimethoxy-4H-indeno[1,2-c]pyrazole-1-carboxylic acid 2-chloro-phenyl ester]: the inhibition at 10 µM (PDGF-R kinase activity) came to 86%. The IC50 under setting [1] was found to be 0.773 µM.

On to `COCCCOc1cc2c(cc1OC)-c1n[nH]c(Nc3cccc(F)c3)c1C2` [Compound 242, (3-Fluoro-phenyl)-[7-methoxy-6-(3-methoxy-propoxy)-2,4-dihydro-indeno[1,2-c]pyrazol-3-yl]-amine], for which, for the setting “PDGF-R kinase activity”, the inhibition at 10 µM was determined as 104%. Also, the 50% inhibitory concentration (IC50) under setting [1] came out at 0.013 µM.

Consider `OCCCOc1cccc2c1Cc1c-2n[nH]c1Nc1cccc(Cl)c1` [Compound 440, 3-[3-(3-Chloro-phenylamino)-2,4-dihydro-indeno[1,2-c]pyrazol-5-yloxy]-propan-1-ol], for which, where the note is “PDGF-R kinase activity”, the inhibition at 10 µM is 89.5%. For the same molecule, under setting [1], the IC50 is 0.0457 µM.

Take `CNCCNC(=O)n1nc(Nc2cccc(F)c2)c2c1-c1cc(OC)c(OC)cc1C2` [Compound 524, 3-(3-Fluoro-phenylamino)-6,7-dimethoxy-4H-indeno[1,2-c]pyrazole-1-carboxylic acid (2-methylamino-ethyl)-amide]: the inhibition at 10 µM (PDGF-R kinase activity) amounted to 78%. Besides, the IC50 under setting [1] was determined as 2.48 µM. For `COc1cccc2c1Cc1c-2n[nH]c1NCc1c(F)cccc1F` [Compound 423, (2,6-Difluoro-benzyl)-(5-methoxy-2,4-dihydro-indeno[1,2-c]pyrazol-3-yl)-amine], in that order: 90% and 0.181 µM. For `C=C(C)C(=O)OCCNC(=O)n1nc(Nc2cccc(F)c2)c2c1-c1cc(OC)c(OC)cc1C2` [Compound 527, 2-Methyl-acrylic acid 2-{[3-(3-fluoro-phenylamino)-6,7-dimethoxy-4H-indeno[1,2-c]pyrazole-1-carbonyl]-amino}-ethyl ester], in that order: 46.5% and 17.5 µM. On the same counts, the results for `COc1ccc2c(c1)Cc1c-2n[nH]c1Nc1ccc(OC)c(OC)c1` [Compound 86, (3,4-Dimethoxy-phenyl)-(6-methoxy-2,4-dihydro-indeno[1,2-c]pyrazol-3-yl)-amine] are 57% and 2.53 µM.

As to `CCC1c2cc(OC)c(OC)cc2-c2c1c(Nc1cccc(Br)c1)nn2C(=O)COC` (centres unmarked) [Compound 514, 1-[3-(3-Bromo-phenylamino)-4-ethyl-6,7-dimethoxy-4H-indeno[1,2-c]pyrazol-1-yl]-2-methoxy-ethanone], where the note is “PDGF-R kinase activity”, the inhibition at 10 µM was found to be 85%. Besides, the IC50 under setting [1] came to 0.24 µM. As for `COc1ccc(OC)c(Nc2[nH]nc3c2C(C)c2cc(OC)c(OC)cc2-3)c1` (centres unmarked) [Compound 258, (6,7-Dimethoxy-4-methyl-2,4-dihydro-indeno[1,2-c]pyrazol-3-yl)-(2,5-dimethoxy-phenyl)-amine], the inhibition at 10 µM (PDGF-R kinase activity) was determined as 39%. For the molecule `COc1cc2c(cc1OCc1ccccc1)Cc1c-2n[nH]c1Nc1cccc(F)c1` [Compound 291, (6-Benzyloxy-7-methoxy-2,4-dihydro-indeno[1,2-c]pyrazol-3-yl)-(3-fluoro-phenyl)-amine], where the note is “PDGF-R kinase activity”, the inhibition at 10 µM came to 95%. In addition, under setting [1], the half-maximal inhibitory concentration (IC50) stood at 0.205 µM.

For `COc1cccc(Nc2n[nH]c3c2Cc2sccc2-3)c1` [Compound 232, (5,7-Dihydro-1-thia-4,5-diaza-cyclopenta[a]pentalen-6-yl)-(3-methoxy-phenyl)-amine], the inhibition at 10 µM (PDGF-R kinase activity) turned out to be 102%. The IC50 under setting [1] is 0.0396 µM. In the case of `O=C1c2ccccc2-c2n[nH]c(Nc3ccccc3)c21` [Compound 35, 3-Phenylamino-2H-indeno[1,2-c]pyrazol-4-one], under “PDGF-R kinase activity”, the inhibition at 10 µM was 88%. For the same molecule, under setting [1], the IC50 came to 2.06 µM.

As to `OC1c2ccccc2-c2n[nH]c(Nc3ccccc3)c21` (centres unmarked) [Compound 50, 3-Phenylamino-2,4-dihydro-indeno[1,2-c]pyrazol-4-ol], the inhibition at 10 µM (PDGF-R kinase activity) was 38%. For the same molecule, the IC50 under setting [1] came to 11.4 µM. On the same counts, the results for `COCCCOc1ccc2c(c1)Cc1c-2n[nH]c1Nc1cccc(Cl)c1` [Compound 135, (3-Chloro-phenyl)-[6-(3-methoxy-propoxy)-2,4-dihydro-indeno[1,2-c]pyrazol-3-yl]-amine] are 87% and 0.202 µM. For `COc1cc2c(cc1OC)C(C)c1c-2n[nH]c1NCc1cccc(Cl)c1` (centres unmarked) [Compound 333, (3-Chloro-benzyl)-(6,7-dimethoxy-4-methyl-2,4-dihydro-indeno[1,2-c]pyrazol-3-yl)-amine], in that order: 73.5% and 2.55 µM.

For the molecule `c1cncc(Nc2[nH]nc3c2Cc2sccc2-3)c1` [Compound 402, (5,7-Dihydro-1-thia-4,5-diaza-cyclopenta[a]pentalen-6-yl)-pyridin-3-yl-amine], the inhibition at 10 µM (PDGF-R kinase activity) amounted to 90%. Besides, the 50% inhibitory concentration (IC50) under setting [1] is 0.196 µM.

Take `CCN(CC)C(=O)CC(=O)n1nc(Nc2cccc(F)c2)c2c1-c1cc(OC)c(OC)cc1C2` [Compound 537, N,N-Diethyl-3-[3-(3-fluoro-phenylamino)-6,7-dimethoxy-4H-indeno[1,2-c]pyrazol-1-yl]-3-oxo-propionamide]: the inhibition at 10 µM (PDGF-R kinase activity) is 104%. For the same molecule, the IC50 under setting [1] worked out at 0.33 µM. For `OCC(O)COc1cccc2c1Cc1c-2n[nH]c1NCc1c(Cl)cccc1Cl` (centres unmarked) [Compound 479, 3-[3-(2,6-Dichloro-benzylamino)-2,4-dihydro-indeno[1,2-c]pyrazol-5-yloxy]-propane-1,2-diol], in that order: 94.5% and 0.624 µM. For `COc1cccc(Nc2[nH]nc3c2C(C)(C)c2cc(OC)c(OC)cc2-3)c1` [Compound 488, (6,7-Dimethoxy-4,4-dimethyl-2,4-dihydro-indeno[1,2-c]pyrazol-3-yl)-(3-methoxy-phenyl)-amine], in that order: 33.5% and 39.3 µM. For `COc1ccc2c(c1)Cc1c-2n[nH]c1Nc1ccc(F)cc1` [Compound 82, (4-Fluoro-phenyl)-(6-methoxy-2,4-dihydro-indeno[1,2-c]pyrazol-3-yl)-amine], in that order: 79% and 0.273 µM.

Consider `COc1ccc(Nc2[nH]nc3c2C(C)c2ccccc2-3)cc1` (centres unmarked) [Compound 107, (4-Methoxy-phenyl)-(4-methyl-2,4-dihydro-indeno[1,2-c]pyrazol-3-yl)-amine], for which the inhibition at 10 µM (PDGF-R kinase activity) was found to be 56%. For the same molecule, the IC50 under setting [1] is 1.27 µM.

With `CC(C)Oc1cc2c(cc1OC(C)C)C(C)c1c-2n[nH]c1Nc1cccnc1` (centres unmarked) [Compound 352, (6,7-Diisopropoxy-4-methyl-2,4-dihydro-indeno[1,2-c]pyrazol-3-yl)-pyridin-3-yl-amine], for the setting “PDGF-R kinase activity”, the inhibition at 10 µM is 86.5%. Moreover, the IC50 under setting [1] was 0.755 µM. On the same counts, the results for `Cc1ccc2c(c1)-c1n[nH]c(NCc3ccc(F)c(F)c3)c1C2` [Compound 317, (3,4-Difluoro-benzyl)-(7-methyl-2,4-dihydro-indeno[1,2-c]pyrazol-3-yl)-amine] are 79% and 1.25 µM. As for `COc1cc2c(cc1OC)-c1n[nH]c(Nc3cc(C(C)(C)C)cc(C(C)(C)C)c3)c1C2` [Compound 279, (3,5-Di-tert-butyl-phenyl)-(6,7-dimethoxy-2,4-dihydro-indeno[1,2-c]pyrazol-3-yl)-amine], the inhibition at 10 µM (PDGF-R kinase activity) was found to be 19.5%. For the same molecule, the IC50 under setting [1] stood at 203 µM. For `COc1cc2c(cc1OC)-c1n[nH]c(NCc3cc(Cl)cc(Cl)c3)c1C2` [Compound 271, (3,5-Dichloro-benzyl)-(6,7-dimethoxy-2,4-dihydro-indeno[1,2-c]pyrazol-3-yl)-amine], in that order: 54.5% and 6.99 µM. For `FC(F)(F)Oc1cccc(Nc2[nH]nc3c2Cc2cc(Br)ccc2-3)c1` [Compound 154, (6-Bromo-2,4-dihydro-indeno[1,2-c]pyrazol-3-yl)-(3-trifluoromethoxy-phenyl)-amine], in that order: 29% and 41.6 µM.

As for `CCCCCCCCCCCCCCCNC(=O)n1nc2c(c1Nc1cccc(F)c1)Cc1cc(OC)c(OC)cc1-2` [Compound 598, 3-(3-Fluoro-phenylamino)-6,7-dimethoxy-4H-indeno[1,2-c]pyrazole-2-carboxylic acid pentadecylamide], the inhibition at 10 µM (PDGF-R kinase activity) was 0%. For the same molecule, for the setting “read-out: IC50 (μM) on PDGF-R kinase activity”, the IC50 stood at 98.4 µM.
